The values below come from patent publication US10414769B2, “5,8-dimethyl-9-phenyl-5,8-dihydro-6H-pyrazolo[3,4-h]quinazolin-2-yl)-(1H-pyrazol-3-yl)-amines as IGF-1R/IR inhibitors” (Boehringer Ingelheim International GmbH, priority 2015, dated 2019).

Molecules are shown by their SMILES.

Experiment [1] has as its target T1, PAK4 (Homo sapiens, UniProt O96013).
T1 construct: purchased Life Technologies PV 4212
As to the kind of experiment: Z'-LYTE kinase selectivity assay PAK4. The format is biochemical. An excerpt:
(§1) In order to compare the kinase selectivity of compounds (I) according to the invention with known prior art compounds the commercially provided SelectScreen® Kinase Profiling Service (Z′-LYTE®) was used (Life Technologies GmbH, Darmstadt, Germany) to investigate the ability of the compounds to inhibit a number of different, representatively selected human kinases. Further details regarding this service are available on the Life Technologies website at
(§2) The Z′-LYTE® biochemical assay employs a fluorescence-based, coupled-enzyme format and is based on the differential sensitivity of phosphorylated and non-phosphorylated peptides to proteolytic cleavage. The peptide substrate is labeled with two fluorophores—one at each end—that make up a FRET pair.
(§3) In the primary reaction, the kinase transfers the gamma-phosphate of ATP to a single tyrosine, serine or threonine residue in a synthetic FRET-peptide. In the secondary reaction, a site-specific protease recognizes and cleaves non-phosphorylated FRET-peptides. Phosphorylation of FRET-peptides suppresses cleavage by the Development Reagent. Cleavage disrupts FRET between the donor (i.e., coumarin) and acceptor (i.e., fluorescein) fluorophores on the FRET-peptide, whereas uncleaved, phosphorylated FRET-peptides maintain FRET. A ratiometric method, which calculates the ratio (the Emission Ratio) of donor emission to acceptor emission after excitation of the donor fluorophore at 400 nm, is used to quantitate reaction progress, as shown in the equation below.
(§4) The Test Compounds are screened at 1 μM.
The 2×PAK4 (# PV 4212)/Ser/Thr 20 (Z′-LYTE® Kinase Assay Kit—Ser/Thr 20 Peptide, # PV 4532) mixture is prepared in 50 mM HEPES pH 7.5, 0.01% BRIJ-35, 10 mM MgCl2, 1 mM EGTA. The final 10 μL Kinase Reaction consists of 0.1-0.75 ng PAK4 and 2 μM Ser/Thr 20 in 50 mM HEPES pH 7.5, 0.01% BRIJ-35, 10 mM MgCl2, 1 mM EGTA. After the 1 hour Kinase Reaction incubation, 5 μL of a 1:512 dilution of Development Reagent A is added.

Experiment [2] deals with T2, TBK1 (Homo sapiens, UniProt Q9UHD2).
T2 construct: purchased Life Technologies PV 3504
T2 sequence (Q9UHD2 1-729): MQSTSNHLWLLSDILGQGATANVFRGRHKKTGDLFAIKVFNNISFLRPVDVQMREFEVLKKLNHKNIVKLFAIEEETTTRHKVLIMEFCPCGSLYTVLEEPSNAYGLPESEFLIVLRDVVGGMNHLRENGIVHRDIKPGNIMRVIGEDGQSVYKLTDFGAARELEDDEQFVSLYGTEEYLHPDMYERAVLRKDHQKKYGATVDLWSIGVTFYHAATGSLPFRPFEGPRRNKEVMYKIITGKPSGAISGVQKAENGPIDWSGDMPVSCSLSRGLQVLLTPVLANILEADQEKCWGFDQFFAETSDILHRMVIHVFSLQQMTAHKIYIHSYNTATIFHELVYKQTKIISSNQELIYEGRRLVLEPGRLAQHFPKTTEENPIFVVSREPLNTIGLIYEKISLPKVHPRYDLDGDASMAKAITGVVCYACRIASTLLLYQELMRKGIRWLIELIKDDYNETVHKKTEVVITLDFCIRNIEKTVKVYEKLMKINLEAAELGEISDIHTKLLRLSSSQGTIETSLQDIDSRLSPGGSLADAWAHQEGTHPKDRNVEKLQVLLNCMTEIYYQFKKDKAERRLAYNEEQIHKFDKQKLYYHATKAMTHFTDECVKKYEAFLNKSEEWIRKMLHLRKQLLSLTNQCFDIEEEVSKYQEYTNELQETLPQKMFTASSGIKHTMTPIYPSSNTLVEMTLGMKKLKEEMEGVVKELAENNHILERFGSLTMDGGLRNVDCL
As to the kind of experiment: Z'-LYTE kinase selectivity assay TBK1. Format: biochemical.
Source text: as §1, §2, §3, §4
The 2×TBK1 (# PV 3504)/Ser/Thr 05 (Z′-LYTE® Kinase Assay Kit—Ser/Thr 5 Peptide, # PV 3178) mixture is prepared in 50 mM HEPES pH 7.5, 0.01% BRIJ-35, 10 mM MgCl2, 1 mM EGTA. The final 10 μL Kinase Reaction consists of 0.7-9.72 ng TBK1 and 2 μM Ser/Thr 05 in 50 mM HEPES pH 7.5, 0.01% BRIJ-35, 10 mM MgCl2, 1 mM EGTA. After the 1 hour Kinase Reaction incubation, 5 μL of a 1:64 dilution of Development Reagent B is added.

Experiment [3] relates to TC-71 (EWING'S sarcoma) cells. As to the kind of experiment: Cell proliferation assay TC-71 (Alamar Blue). The format is cell-based. The note with it: anti-proliferative effect, TC-71 cells, 72 h; read-out: TC71 EC50. The procedure:
(§5) Cell Proliferation Assays
(§6) Compounds were tested for their anti-proliferative effects in the TC-71 (EWING'S sarcoma) and HCT 116 (colorectal carcinoma) cancer cell lines in vitro. Published scientific data has described that interference with the IGF-1R signaling pathway reduces the proliferation of TC-71 cells (Manara et al, 2007). Therefore TC-71 cells served as a positive control cell line for monitoring the activity of compounds against IGF-1R-mediated cell proliferation. […] Therefore the HCT 116 cell line served as a negative control.
(§7) 2000 TC-71 cells or 1000 HCT 116 cells were seeded per well in 180 μL IMDM+10% foetal calf serum (FCS)+penicillin/streptomycin into 96-well microtitre plates. The plates were placed in a cell culture incubator (37° C. in a humidified atmosphere of […]/5% CO2) overnight. The following day, serial dilutions of compounds, prepared in duplicates, were transferred onto the cell layers (controls without compound). The cells were cultivated for a further 72 h in the cell culture incubator. 20 μL of Alamar Blue™ (Serotec Ltd, Dusseldorf, Germany) was added to each well and the plates incubated for 7 h in the cell culture incubator. Fluorescence (extinction wavelength of 544 nm and emission at 590 nm) was then measured and the normalized data fitted by iterative calculation with a sigmoidal curve analysis program (Graph Pad Prism) with a variable Hill slope to determine the EC50 values.
For orientation: Alamar Blue is a resazurin reagent that responds to reducing activity.

Experiment [4] deals with HCT 116 (colorectal carcinoma) cells. As to the kind of experiment: Cell proliferation assay HCT 116 (Alamar Blue). The format is cell-based. The note with it: Homo sapiens; anti-proliferative effect, HCT 116 cells (negative control line), 72 h. On the procedure:
as §5, §6, §7

T1 sequence (O96013 whole entry): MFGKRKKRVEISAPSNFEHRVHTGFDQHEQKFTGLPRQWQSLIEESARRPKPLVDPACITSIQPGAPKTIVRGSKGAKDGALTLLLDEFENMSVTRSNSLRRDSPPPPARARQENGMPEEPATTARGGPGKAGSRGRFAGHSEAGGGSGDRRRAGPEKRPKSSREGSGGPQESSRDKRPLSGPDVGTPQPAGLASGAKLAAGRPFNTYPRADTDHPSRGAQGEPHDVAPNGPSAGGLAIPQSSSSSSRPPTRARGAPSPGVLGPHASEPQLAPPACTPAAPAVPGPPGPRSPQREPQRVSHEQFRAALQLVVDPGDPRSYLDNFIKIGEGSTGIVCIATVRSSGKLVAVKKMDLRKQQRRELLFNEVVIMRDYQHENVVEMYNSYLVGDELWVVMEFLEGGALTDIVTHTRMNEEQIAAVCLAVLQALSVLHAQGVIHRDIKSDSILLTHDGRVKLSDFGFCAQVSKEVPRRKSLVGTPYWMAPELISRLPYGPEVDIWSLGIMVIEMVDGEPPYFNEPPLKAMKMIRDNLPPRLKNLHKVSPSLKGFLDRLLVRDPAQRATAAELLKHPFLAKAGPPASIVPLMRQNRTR

The term inhibition denotes the drop in the measured response relative to a control, in per cent. One may read the EC50 as the concentration that produces a half-maximal response. `C[C@@H]1Cc2nn(C)c(-c3ccccc3)c2-c2nc(Nc3ccn(CCN4CCOCC4)n3)ncc21` [Compound I-2]: the figures for the inhibition at 1 µM in experiment [1] and in experiment [2] were 24% and 48%, respectively. Moreover, the EC50 in experiment [3] was 2.35 nM; in experiment [4] it was more than 2500 nM.
For the molecule `CC(O)CN1CCN(CCn2ccc(Nc3ncc4c(n3)-c3c(nn(C)c3-c3ccccc3)C[C@H]4C)n2)CC1` (stereo partly shown) [Compound I-7], the inhibition at 1 µM is 19% in experiment [1] and 49% in experiment [2]. Besides, the concentration for a half-maximal effect (EC50) in experiment [3] stood at 2.17 nM; in experiment [4] it was 1840 nM.
As to `COCCN1CCN(CCn2ccc(Nc3ncc4c(n3)-c3c(nn(C)c3-c3ccccc3)C[C@H]4C)n2)CC1` [Compound I-11], the values for the inhibition at 1 µM in experiment [1] and in experiment [2] were 27% and 33%, respectively. The half-maximal effective concentration (EC50) in experiment [3] was 3.74 nM; in experiment [4], more than 2500 nM.
For `C[C@@H]1Cc2nn(C)c(-c3ccccc3)c2-c2nc(Nc3ccn(CCN4CCN(CC5CCCO5)CC4)n3)ncc21` (stereo partly shown) [Compound I-9], the inhibition at 1 µM in experiment [1] was 32%; in experiment [2], 57%. The results for the EC50 in experiment [3] and in experiment [4] were 5.43 nM and more than 2500 nM, respectively.
Regarding `C[C@@H]1Cc2nn(C)c(-c3ccccc3)c2-c2nc(Nc3ccn(CCN4CCN(CC(=O)OC5CCOCC5)CC4)n3)ncc21` [Compound I-8], the inhibition at 1 µM was determined as 21% in experiment [1] and 46% in experiment [2]. The EC50 is 5.98 nM in experiment [3] and more than 2500 nM in experiment [4].
The matching figures for `C[C@@H]1Cc2nn(C)c(-c3ccccc3)c2-c2nc(Nc3ccn(CCN4CCN(C)CC4)n3)ncc21` [Compound I-1]: 14%, 38%, 2.62 nM and more than 2500 nM.
As for `C[C@@H]1Cc2nn(C)c(-c3ccccc3)c2-c2nc(Nc3ccn(CCN4CCN(CC(C)(C)O)CC4)n3)ncc21` [Compound I-3], the figures for the inhibition at 1 µM in experiment [1] and in experiment [2] were 39% and 51%, respectively. The half-maximal effective concentration (EC50) in experiment [3] worked out at 2.67 nM; in experiment [4], 2000 nM.
